Assay results reported in PubChem BioAssay (NCI).
Where “and” joins values, the source holds several entries; their conditions need not be identical. Identical values can stand only once.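 Following 48 hours of exposure in 96-well plates, responses at five concentrations were used to interpolate endpoints linearly. GI50 marks 50% less growth. At the TGI there is no net growth.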

What was measured:
Experiment in all cases: inhibition of tumour cell growth, NCI panel, 48 h
786-0 renal = system: 786-0 renal
HCC-2998 colon = system: HCC-2998 colon
HOP-92 NSCLC = system: HOP-92 NSCLC
MALME-3M melanoma = system: MALME-3M melanoma
OVCAR-4 ovarian = system: OVCAR-4 ovarian
OVCAR-5 ovarian = system: OVCAR-5 ovarian
U251 CNS = system: U251 CNS
PC-3 prostate = system: PC-3 prostate
T-47D breast = system: T-47D breast
BT-549 breast = system: BT-549 breast

`O=C1C=CC2(O)OCC3C=C4O[C@@H]5OC6(CCCCC6)O[C@@H]5C4[C@@H]2[C@@H]13` (stereo partly specified) gave a TGI (786-0 renal) of 41.2 µM, a TGI (HCC-2998 colon) greater than 100 µM and a TGI (HOP-92 NSCLC) of 33.4 µM. It also gave a TGI (MALME-3M melanoma) of 62.1 µM, a TGI (OVCAR-4 ovarian) of 59.9 µM and a TGI (OVCAR-5 ovarian) greater than 100 µM. The TGI (U251 CNS) was greater than 100 µM.
For `O=C(O)c1ccccc1C(=O)c1ccco1`, the TGI (786-0 renal) was greater than 100 µM, the TGI (HCC-2998 colon) was greater than 100 µM and the TGI (HOP-92 NSCLC) was greater than 100 µM. The TGI (MALME-3M melanoma) was greater than 100 µM, the TGI (OVCAR-4 ovarian) was greater than 100 µM and the TGI (OVCAR-5 ovarian) was greater than 100 µM. For the same compound, the TGI (U251 CNS) was greater than 100 µM.
Work on `COC(=O)C1CCC(C)CC1=O` (stereo unspecified) yielded a TGI (786-0 renal) greater than 100 µM, a TGI (HCC-2998 colon) greater than 100 µM and a TGI (HOP-92 NSCLC) greater than 100 µM. The TGI (MALME-3M melanoma) was greater than 100 µM, the TGI (OVCAR-4 ovarian) was greater than 100 µM and the TGI (OVCAR-5 ovarian) was greater than 100 µM. The TGI (U251 CNS) was greater than 100 µM.
`O=C([O-])c1ccc([I+]c2ccccc2)cc1` showed a TGI (786-0 renal) greater than 100 µM, a TGI (HCC-2998 colon) greater than 100 µM and a TGI (HOP-92 NSCLC) greater than 100 µM. The TGI (MALME-3M melanoma) was greater than 100 µM, the TGI (OVCAR-4 ovarian) was greater than 100 µM and the TGI (OVCAR-5 ovarian) was greater than 100 µM. The TGI (U251 CNS) was greater than 100 µM.
In the case of `COS(=O)c1cc(Cl)cc(Cl)c1OC(=O)CSSCC(=O)Oc1c(Cl)cc(Cl)cc1S(=O)OC` (stereo unspecified), the TGI (786-0 renal) is reported as 54.5 µM, the TGI (HCC-2998 colon) is reported as 40.3 µM and the TGI (HOP-92 NSCLC) is reported as 53.2 µM. The TGI (MALME-3M melanoma) was 42.4 µM, the TGI (OVCAR-4 ovarian) was 51.6 µM and the TGI (OVCAR-5 ovarian) was 41.2 µM. It also gave a TGI (U251 CNS) of 20.6 µM.
`CCOC(=O)C1=C(C)N(NC(N)=O)C2(N)N(NC(N)=O)C(C)=C(C(=O)OCC)C12C#N` (stereo unspecified) showed a TGI (786-0 renal) greater than 100 µM, a TGI (HCC-2998 colon) greater than 100 µM and a TGI (MALME-3M melanoma) greater than 100 µM. For the same compound, the TGI (OVCAR-4 ovarian) was greater than 100 µM, the TGI (OVCAR-5 ovarian) was greater than 100 µM and the TGI (U251 CNS) was greater than 100 µM.
With `COc1ccc(/C=C/C(=O)c2c(-c3ccccc3)nn(C)c(=O)c2N2CCCCC2)cc1` the TGI (786-0 renal) was 38.2 µM, the TGI (HOP-92 NSCLC) was 16.8 µM and the TGI (U251 CNS) was 30.1 µM.
`OC1=CN=C(c2ccccc2)Oc2ccccc21` was tested, and the TGI (786-0 renal) was greater than 100 µM, the TGI (HCC-2998 colon) was greater than 100 µM and the TGI (HOP-92 NSCLC) was greater than 100 µM. For the same compound, the TGI (MALME-3M melanoma) was greater than 100 µM, the TGI (OVCAR-4 ovarian) was greater than 100 µM and the TGI (U251 CNS) was greater than 100 µM.
`C1CN2CCO[SiH](O1)OCC2` showed a TGI (786-0 renal) greater than 100 µM, a TGI (HCC-2998 colon) greater than 100 µM and a TGI (MALME-3M melanoma) greater than 100 µM. The TGI (U251 CNS) was greater than 100 µM.
`CNC(=O)OCc1nc(SSc2nc(COC(=O)NC)c(COC(=O)NC)n2C)n(C)c1COC(=O)NC` was tested, and the TGI (786-0 renal) was greater than 100 µM, the TGI (HCC-2998 colon) was greater than 100 µM and the TGI (HOP-92 NSCLC) was greater than 100 µM. It also gave a TGI (MALME-3M melanoma) greater than 100 µM, a TGI (OVCAR-4 ovarian) greater than 100 µM and a TGI (OVCAR-5 ovarian) greater than 100 µM. It also gave a TGI (U251 CNS) greater than 100 µM.
`CCCCCCCCCCCCCCCC(=O)OCC1OC(n2cc(F)c(=O)[nH]c2=O)C(NC(=O)OCc2ccccc2)C(O)C1O` (stereo unspecified) gave a TGI (786-0 renal) of 36.2 µM, a TGI (HCC-2998 colon) of 31.9 µM and a TGI (HOP-92 NSCLC) of 31.5 µM. For the same compound, the TGI (MALME-3M melanoma) was 9.44 µM, the TGI (OVCAR-4 ovarian) was 42 µM and the TGI (OVCAR-5 ovarian) was 39.8 µM. The TGI (U251 CNS) was 31.4 µM.
For `CCc1c(OC(C)=O)c2c(NC3OC(COC(C)=O)C(OC(C)=O)C(OC(C)=O)C3OC(C)=O)nc(SC)nc2oc1=O` (stereo unspecified), the TGI (786-0 renal) was greater than 100 µM, the TGI (HCC-2998 colon) was greater than 100 µM and the TGI (HOP-92 NSCLC) was greater than 100 µM. It also gave a TGI (MALME-3M melanoma) greater than 100 µM, a TGI (OVCAR-4 ovarian) greater than 100 µM and a TGI (OVCAR-5 ovarian) greater than 100 µM. For the same compound, the TGI (U251 CNS) was greater than 100 µM.
`COc1cc2c(c3c1c(=O)c1ccccc1n3C)C=C([N+](=O)[O-])C(C)(C)O2` was tested, and the TGI (786-0 renal) was greater than 100 µM, the TGI (HOP-92 NSCLC) was greater than 100 µM and the TGI (OVCAR-4 ovarian) was greater than 100 µM. For the same compound, the TGI (OVCAR-5 ovarian) was greater than 100 µM, the TGI (PC-3 prostate) was greater than 100 µM and the TGI (T-47D breast) was greater than 100 µM. For the same compound, the TGI (U251 CNS) was greater than 100 µM.
With `[O-][n+]1c2cccc(O)c2[n+]([O-])c2cccc(O)c21` the TGI (786-0 renal) was greater than 100 µM, the TGI (BT-549 breast) was greater than 100 µM and the TGI (HOP-92 NSCLC) was 97.5 µM. The TGI (OVCAR-4 ovarian) was greater than 100 µM, the TGI (OVCAR-5 ovarian) was greater than 100 µM and the TGI (PC-3 prostate) was greater than 100 µM. It also gave a TGI (T-47D breast) greater than 100 µM and a TGI (U251 CNS) greater than 100 µM.
With `C[n+]1cn(CC(=O)c2ccccc2)c(C(N)=O)c1N` the TGI (786-0 renal) was greater than 100 µM, the TGI (HCC-2998 colon) was greater than 100 µM and the TGI (HOP-92 NSCLC) was greater than 100 µM. It also gave a TGI (MALME-3M melanoma) greater than 100 µM, a TGI (OVCAR-4 ovarian) greater than 100 µM and a TGI (OVCAR-5 ovarian) greater than 100 µM. For the same compound, the TGI (U251 CNS) was greater than 100 µM.
`N#CC(C(=O)Nc1ccccc1)C1=C(Cl)C(=O)c2ccccc2C1=O` (stereo unspecified) gave a TGI (786-0 renal) of 27.7 µM, a TGI (HCC-2998 colon) of 45.9 µM and a TGI (HOP-92 NSCLC) of 27.9 µM. It also gave a TGI (MALME-3M melanoma) of 26.7 µM, a TGI (OVCAR-4 ovarian) of 31 µM and a TGI (OVCAR-5 ovarian) of 32.2 µM. The TGI (U251 CNS) was 61.5 µM.
With `CCOC(=O)C[C@@]12CCCN[C@]1(C)CCc1ccccc12` the TGI (786-0 renal) was greater than 100 µM, the TGI (HCC-2998 colon) was greater than 100 µM and the TGI (HOP-92 NSCLC) was greater than 100 µM. For the same compound, the TGI (MALME-3M melanoma) was greater than 100 µM, the TGI (OVCAR-4 ovarian) was greater than 100 µM and the TGI (OVCAR-5 ovarian) was greater than 100 µM. For the same compound, the TGI (U251 CNS) was greater than 100 µM.
With `CCCCCCCCCCCCCC(=O)O[C@H]1CC[C@H](NC(=O)[C@H](OC)[C@H](O)[C@@H](O)[C@H](O)/C=C/C(C)C)C(=O)N(C)C1` the GI50 (786-0 renal) was 0.00238 µM, the TGI (786-0 renal) was 15 µM and 3.18 µM and the GI50 (HCC-2998 colon) was 0.00238 µM. For the same compound, the TGI (HCC-2998 colon) was 0.63 µM and 4.25 µM, the TGI (HOP-92 NSCLC) was 0.0541 µM and the GI50 (MALME-3M melanoma) was 0.00717 µM. For the same compound, the TGI (MALME-3M melanoma) was 15 µM and > 23.8 µM, the GI50 (OVCAR-4 ovarian) was 0.00391 µM and the TGI (OVCAR-4 ovarian) was 15 µM and 11.1 µM. The GI50 (OVCAR-5 ovarian) was greater than 23.8 µM, the TGI (OVCAR-5 ovarian) was 15 µM and > 23.8 µM and the GI50 (U251 CNS) was less than 0.0015 µM. For the same compound, the TGI (U251 CNS) was 15 µM and 3.06 µM.
In the case of `COc1cccc(-c2cc(=O)c3cc(N4CCN(C)CC4)ccc3[nH]2)c1`, the GI50 (786-0 renal) is reported as 5.28 µM, the TGI (786-0 renal) is reported as greater than 100 µM and the GI50 (HCC-2998 colon) is reported as 1.15 µM. The TGI (HCC-2998 colon) was 4.71 µM and 3.88 µM, the GI50 (HOP-92 NSCLC) was 3.1 µM and the GI50 (OVCAR-4 ovarian) was 10.6 µM. It also gave a TGI (OVCAR-4 ovarian) greater than 100 µM, a GI50 (OVCAR-5 ovarian) of 6.24 µM and a TGI (OVCAR-5 ovarian) greater than 100 µM. It also gave a GI50 (PC-3 prostate) of 1.55 µM and a TGI (PC-3 prostate) greater than 100 µM.
Compound `Cc1ccc(-n2c3nc(=O)n(C)c(=O)c-3nc3ccccc32)c(C)c1` has a TGI (786-0 renal) of 42.1 µM, a TGI (HCC-2998 colon) of 19 µM and a TGI (MALME-3M melanoma) of 12.9 µM. It also gave a TGI (OVCAR-4 ovarian) of 24.6 µM, a TGI (OVCAR-5 ovarian) of 32.7 µM and a TGI (U251 CNS) of 32.1 µM.
